{
  "source": "patent US7893109B2",
  "about": "“N,N-dihalogenated amino acids and derivatives” (Novabay Pharmaceuticals, Inc., priority 2003, dated 2011)",
  "key": {"in vitro": {"assay": "in vitro", "settings": "human, pH 3.5", "method": "(§1) Cytotoxicity was assessed by a […] assay system, initially described by Scudiero et al., using 3′-(phenylamino-carbonyl)-3,4-tetrazolium-bis(4-methoxy-6-nitro) benzene sulfonic acid hydrate (XTT), ProCheck™ cell viability assay (Evaluation of a soluble tetrazolium/formazan assay for cell growth and drug sensitivity in culture using human and other tumor cell lines described by Scudiero D A, Shoemaker R A H, Paul K D, Monks A, Tierney S, Nofziger T H, Currens M J, Seniff D, Boyd M R. Cancer Res. 1988 Sep. 1; 48(17):4827-33). Similar approaches for determining the cell viability are used by other investigators. Three cell types were used: […] (L929), primary human skin fibroblast and primary human keratinocyte cells cultured in Dulbecco Modified Eagle's Medium and Keratinocyte defined medium with corresponding growth factors plus antibiotics. Cells were trypsinized and counted under the microscope and seeded at 1000-to-2000 cells per well of a flat-bottom 96-well plate. Cells were allowed to grow over-night at 37° C. Next day, tissue culture media was removed and cells were rinsed with fresh media 1× and then left in 50 μL of tissue culture media. Test articles were prepared as 2-fold dilutions and 200 μL was added into each set of 4-wells (total volume per well=250 μL). Cells were exposed to test articles for 60 min at room temperature. Immediately after the exposed time, test article from each well was removed and cells were fed with 250 μL of fresh media. Plates were incubated at 37° C. for 18-20 hours. The following day media was removed again and replaced with 100 μL/well of fresh media containing 10/100 μL XTT-reagent. Cells were incubated under growth conditions (5% CO2 at 37° C. humidified incubator), protected from light, until color development was achieved. Absorbance was read at 450 nm with reference wavelength at 750 nm using Molecular Device ThermoMax Plate reader, blanking the plate on the medium-only assay blank wells. Untreated cells receiving XTT reagents-only served as positive cell proliferation control."}, "[1]": {"tested_on": "Primary Human Skin Fibroblasts", "assay": "XTT cytotoxicity assay, primary human skin fibroblasts", "settings": "for cell inhibitory concentration toxicity index (CCI50 / IC50), 50% of cells still alive: Primary Human Skin Fibroblasts, XTT Assay, 60 min exposure", "method": "as §1"}, "[2]": {"tested_on": "Escherichia coli (ATCC 11229)", "assay": "Bactericidal activity (MBC / effective antimicrobial concentration)", "format": "cell-based", "method": "To determine the bactericidal activity, we used Escherichia coli (ATCC 11229). The bacterial culture was diluted in sterile saline to prepare inocula. Various test articles were transferred to individual tubes already containing 1.0×10^5 to 2.0×10^5 Colony Forming Units (CFU)/mL bacteria and mixed by gentle vortexing and then incubated at 37° C. for 1 or 24 hours. In an attempt to mimic as far as possible the conditions, which could be produced in vivo if the test articles were used as antiseptics, bacterial plating in a Petri dish was performed immediately after the designated exposure time without the addition of a neutralizer, and independently with addition of neutralizer (as control). Thus, 0.1 mL was removed after 1 or 24 hours exposure times and plated. Plates were incubated at 37° C., and the numbers of bacteria were counted by direct colony count to numerate the surviving bacteria as CFU/mL. Positive growth controls were made with sterile 0.9% saline. All test articles were tested three times."}, "[3]": {"assay": "Storage stability of N,N-dichlorotaurine solution in a vial in a refrigerator", "format": "physicochemical", "settings": "solution in a vial stored in a refrigerator; three months", "method": "The stability of a solution of N,N-dihaloamino acids and their derivatives permits the use of different forms of packaging that would be practical for use by patients. The solution may be packaged in several single-use 30 ml amber glass bottles with Teflon-lined screw caps and sealed with tape to ensure gas tightness. In one aspect, the same solution may be packaged in a 250 ml amber glass bottle or in a 250 ml non-reactive plastic bottle. However, up to 5 liter bottles may be used, because such larger volumes are practical for treatment of burns. Storage in these receptacles ensures long-term stability required for the uses of the compositions described herein in detail. […] Additionally, packaging may include a dual chamber system where component A is mixed with component B to form the final product, N,N-dihaloamino acid or its derivatives."}, "[4]": {"format": "physicochemical", "description": "N,N-dichlorotaurine can be identified and quantitatively determined by UV spectroscopy."}, "[5]": {"assay": "Volatility test, tightly vs loosely capped bottles", "format": "physicochemical", "settings": "1.47 mM in 0.9% saline at pH 3.5; 4 weeks at room temperature", "method": "NNDCT is not volatile. A solution of 1.47 mM in 0.9% saline at pH 3.5 was filled in two glass bottles. One bottle was capped tightly and another was capped loosely."}, "[6]": {"assay": "UV-vis spectrum and concentration of NNDCT solutions at pH 3.0 to 5.0", "format": "physicochemical", "settings": "1.49 mM; pH range from 3.0 to 5.0", "method": "The spectra and the concentrations of the solutions were measured on the UV-vis spectrometer.\nAdd 8.8 g NaCl, 2 ml of 1.0 M HCl, and 0.278 g of taurine into a 1000-ml volumetric flask, followed by adding about 800 ml of deionized water into the flask. Shake the flask to dissolve NaCl and taurine powders. Then add […] of 0.15M of the NaOCl solution into the flask. Fill the flask up to the mark with deionized water. Stir the solution with a magnetic stirring bar for 5 minutes. The concentration and the pH of the resulting solution were measured on a UV-vis spectrometer and a freshly calibrated Beckman pH meter. This solution has a concentration of 1.49 mM and a pH value of 3.85. […] The final pH of this solution is 3.0. […] The final pH of this solution is 4.85.\nSolutions with varying pH values were prepared in a similar manner within the pH range of 3 to 5. All solutions show stability if properly stored as shown by their UV spectra."}, "[7]": {"settings": "pH 3.5"}, "[8]": {"settings": "pH=1.88; after 100 hours; cited from earlier work"}},
  "note": "Read-outs that look alike come from different tables or passages of the source.",
  "data": [
    {"compound": "OCl", "note": "[HOCl, hypochlorous acid, reference compound]", "values": [
      {"measurement": "IC50 at 60 min", "setting": "in vitro", "result": 47, "unit": "µg/mL"},
      {"measurement": "cell inhibitory concentration toxicity index (CCI50 / IC50), 50% of cells still alive", "setting": "[1]", "result": 800, "unit": "µM"}
    ]},
    {"compound": "O=S(=O)(O)CCNCl", "note": "[NCT, N-chlorotaurine, reference compound]", "values": [
      {"measurement": "factor by which less antimicrobial than NNDCT", "setting": "[2]; on an equal concentration basis", "result": 1000, "unit": "fold"}
    ]},
    {"compound": "O=S(=O)(O)CCN(Cl)Cl", "note": "[NNDCT, N,N-dichlorotaurine]", "values": [
      {"measurement": "bacterial killing efficiency of NNDCT at pH 3.5 compared to NCT at pH 9.5", "setting": "[2]; 60 min exposure at 37° C.", "result": 1000, "unit": "fold"},
      {"measurement": "bacterial killing efficiency of NNDCT at pH 3.5 over NNDCT at pH 5.0", "setting": "[2]; 60 min exposure at 37° C.", "result": "about 300 fold"},
      {"measurement": "effectiveness against E. coli compared with HOCl", "setting": "[2]; pH 3.5", "result": "better or as effective against E. coli as HOCl"},
      {"measurement": "IC50 at 60 min", "setting": "in vitro", "result": 1440, "unit": "µg/mL"},
      {"measurement": "range of cell toxicity relative to antimicrobial (μM) range", "setting": "[1]; 0.9% saline at pH 3.5, XTT assay, cell type not stated in Example 5", "result": 1000, "unit": "fold"},
      {"measurement": "cell inhibitory concentration toxicity index (CCI50 / IC50), 50% of cells still alive", "setting": "[1]", "result": 7000, "unit": "µM"},
      {"measurement": "loss of N,N-dichlorotaurine", "setting": "[3]", "result": "no more than 13%"},
      {"measurement": "solubility in water", "setting": "[4]", "result": "very soluble"},
      {"measurement": "volatility", "setting": "[5]", "result": "not volatile"},
      {"measurement": "change of spectrum and concentration of solution with pH", "setting": "[6]", "result": "did not change"},
      {"measurement": "NNDCT lost", "setting": "[7]; 4 weeks, refrigerator (4° C.), [NNDCT]initial=1.47 mM", "result": 5.4, "unit": "%"},
      {"measurement": "order of stability at three temperatures", "setting": "[7]", "result": "4° C.>room temperature>40 °C"},
      {"measurement": "loss of N,N-dichlorotaurine", "setting": "[8]", "result": "less than 5%"}
    ]},
    {"compound": "OCl", "note": "[OCl^−, reference compound]", "values": [
      {"measurement": "cell inhibitory concentration toxicity index (CCI50 / IC50), 50% of cells still alive", "setting": "[1]", "result": 660, "unit": "µM"}
    ]}
  ]
}
